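Each compound was tested at five concentrations against cells in 96-well plates for 48 hours. GI50 is the concentration that inhibits growth by half.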 Activity calls are given as the source filed them. Cut-off read from the data, not from the text of the source: active = GI50 up to about 1.1 µM and inactive = higher.
Experiments:
Test in all cases: DTP human tumour cell line panel, 48 h
[1] = system: ACHN
[2] = system: CAKI-1
[3] = system: HCC 2998
[4] = system: HCT-15
[5] = system: HL-60
[6] = system: HT-29
[7] = system: K562
[8] = system: LXFL 529
[9] = system: MOLT-4
[10] = system: NCI-H460
[11] = system: OVCAR-8
[12] = system: SF-295
[13] = system: SK-MEL-2
[14] = system: SK-OV-3
[15] = system: SNB-19
[16] = system: SNB-75
[17] = system: UACC-257
[18] = system: UACC-62
[19] = system: MCF7
[20] = system: SF-539

Compound: c1ccc(CNn2nnc3ccccc32)cc1
- GI50 [1]: > 100 µM (inactive)
- GI50 [2]: > 100 µM (inactive)
- GI50 [3]: > 100 µM (inactive)
- GI50 [4]: > 100 µM
- GI50 [5]: > 100 µM (inactive)
- GI50 [6]: > 100 µM (inactive)
- GI50 [7]: > 100 µM (inactive)
- GI50 [8]: > 100 µM (inactive)
- GI50 [9]: > 100 µM (inactive)
- GI50 [10]: > 100 µM (inactive)
- GI50 [11]: > 100 µM (inactive)
- GI50 [12]: > 100 µM (inactive)
- GI50 [13]: > 100 µM (inactive)
- GI50 [14]: > 100 µM (inactive)
- GI50 [15]: > 100 µM (inactive)
- GI50 [16]: > 100 µM (inactive)
- GI50 [17]: > 100 µM (inactive)
- GI50 [18]: > 100 µM (inactive)

Compound: COc1cc(/C=C\c2ccc(C)cc2)cc(OC)c1OC
- GI50 [1]: 0.0637 µM (active)
- GI50 [2]: < 0.01 µM (active)
- GI50 [3]: 0.0191 µM (active)
- GI50 [4]: 0.00746 µM
- GI50 [5]: 0.00057 µM (active)
- GI50 [6]: 0.00783 µM (active)
- GI50 [7]: 0.00131 µM (active)
- GI50 [8]: 0.0004 µM (active)
- GI50 [19]: 0.0415 µM (active)
- GI50 [9]: 0.00697 µM (active)
- GI50 [10]: 0.0232 µM (active)
- GI50 [11]: 0.00822 µM (active)
- GI50 [12]: 0.00188 µM (active)
- GI50 [20]: 0.00296 µM (active)
- GI50 [13]: < 0.01 µM (active)
- GI50 [14]: 0.0017 µM (active)
- GI50 [15]: 0.004 µM (active)
- GI50 [16]: 0.00281 µM (active)
- GI50 [17]: 0.00904 µM (active)
- GI50 [18]: 0.00885 µM (active)

Compound: COc1ccc(NC(=O)CC2SC(Nc3ccc(Cl)cc3C)=NC2=O)c([N+](=O)[O-])c1 (stereo not drawn)
- GI50 [1]: > 100 µM (inactive)
- GI50 [2]: > 100 µM (inactive)
- GI50 [3]: > 100 µM (inactive)
- GI50 [4]: > 100 µM
- GI50 [5]: > 100 µM (inactive)
- GI50 [6]: > 100 µM (inactive)
- GI50 [7]: > 100 µM (inactive)
- GI50 [8]: > 100 µM (inactive)
- GI50 [9]: > 100 µM (inactive)
- GI50 [10]: > 100 µM (inactive)
- GI50 [11]: > 100 µM (inactive)
- GI50 [12]: > 100 µM (inactive)
- GI50 [20]: > 100 µM (inactive)
- GI50 [13]: > 100 µM (inactive)
- GI50 [15]: > 100 µM (inactive)
- GI50 [16]: > 100 µM (inactive)
- GI50 [17]: > 100 µM (inactive)
- GI50 [18]: > 100 µM (inactive)

Compound: O=c1c2c(c1=O)-c1ccccc1CN2
- GI50 [1]: > 100 µM (inactive)
- GI50 [2]: > 100 µM (inactive)
- GI50 [3]: > 100 µM (inactive)
- GI50 [4]: > 100 µM
- GI50 [5]: > 100 µM (inactive)
- GI50 [6]: > 100 µM (inactive)
- GI50 [7]: > 100 µM (inactive)
- GI50 [8]: > 100 µM (inactive)
- GI50 [9]: > 100 µM (inactive)
- GI50 [10]: > 100 µM (inactive)
- GI50 [11]: > 100 µM (inactive)
- GI50 [20]: > 100 µM (inactive)
- GI50 [13]: > 100 µM (inactive)
- GI50 [14]: > 100 µM (inactive)
- GI50 [15]: > 100 µM (inactive)
- GI50 [16]: > 100 µM (inactive)
- GI50 [17]: > 100 µM (inactive)
- GI50 [18]: > 100 µM (inactive)

Compound: Cc1cn(C2OC(C)(CO)C(O)C2O)c(=O)[nH]c1=O (stereo not drawn)
- GI50 [1]: > 100 µM (inactive)
- GI50 [2]: > 100 µM (inactive)
- GI50 [3]: > 100 µM (inactive)
- GI50 [4]: > 100 µM
- GI50 [5]: > 10 µM (inactive)
- GI50 [6]: > 100 µM (inactive)
- GI50 [7]: > 100 µM (inactive)
- GI50 [8]: > 100 µM (inactive)
- GI50 [9]: > 100 µM (inactive)
- GI50 [10]: > 100 µM (inactive)
- GI50 [11]: > 100 µM (inactive)
- GI50 [12]: > 100 µM (inactive)
- GI50 [20]: > 100 µM (inactive)
- GI50 [13]: > 100 µM (inactive)
- GI50 [14]: > 100 µM (inactive)
- GI50 [15]: > 100 µM (inactive)
- GI50 [16]: > 100 µM (inactive)
- GI50 [18]: > 100 µM (inactive)

Compound: O=C(Nc1ccc(Cl)cc1C(F)(F)F)C(=O)C1CCCS1(=O)=O (stereo not drawn)
- GI50 [1]: > 100 µM (inactive)
- GI50 [2]: > 100 µM (inactive)
- GI50 [3]: > 100 µM (inactive)
- GI50 [4]: > 100 µM
- GI50 [5]: > 100 µM (inactive)
- GI50 [6]: > 100 µM (inactive)
- GI50 [7]: > 100 µM (inactive)
- GI50 [8]: > 100 µM (inactive)
- GI50 [9]: > 100 µM (inactive)
- GI50 [10]: > 100 µM (inactive)
- GI50 [11]: > 100 µM (inactive)
- GI50 [12]: > 100 µM (inactive)
- GI50 [20]: > 100 µM (inactive)
- GI50 [15]: > 100 µM (inactive)
- GI50 [16]: > 100 µM (inactive)
- GI50 [17]: > 100 µM (inactive)
- GI50 [18]: > 100 µM (inactive)

Compound: O=Cc1ccccc1COC(=O)c1cc(C(=O)OCc2ccccc2C=O)c(C(=O)OCc2ccccc2C=O)cc1C(=O)OCc1ccccc1C=O
- GI50 [1]: > 100 µM (inactive)
- GI50 [2]: > 100 µM (inactive)
- GI50 [3]: > 100 µM (inactive)
- GI50 [4]: > 100 µM
- GI50 [5]: 38.2 µM (inactive)
- GI50 [6]: > 100 µM (inactive)
- GI50 [7]: 39.8 µM (inactive)
- GI50 [8]: 46.3 µM (inactive)
- GI50 [9]: 30.3 µM (inactive)
- GI50 [10]: > 100 µM (inactive)
- GI50 [11]: 80 µM (inactive)
- GI50 [12]: 64.6 µM (inactive)
- GI50 [20]: > 100 µM (inactive)
- GI50 [13]: 82.2 µM (inactive)
- GI50 [14]: > 100 µM (inactive)
- GI50 [15]: > 100 µM (inactive)
- GI50 [16]: 21.5 µM (inactive)
- GI50 [17]: > 100 µM (inactive)
- GI50 [18]: > 100 µM (inactive)

Reference: ChEMBL document CHEMBL1201862, “PubChem BioAssay data set” (2004)
